Laboratory results reported in patent publication US4107424A, “1-N-[(S)-α-hydroxy-ω-aminoacyl] derivatives of 3',4'-dideoxykanamycin B and 3'-deoxykanamycin B antibiotics” (Zaidan Hojin Biseibutsu Kagaku Kenkyu Kai, priority 1972, dated 1978).
Converted amounts (≈) assume the structure as drawn. Like-named read-outs stand apart in the source and are kept apart here.

What was measured:
Bacillus anthracis = assay: microbe, parasite or virus in culture; assay type: cell-based; conditions: 18 h, read-out: Minimum inhibitory concentrations
[1] = system: Shigella flexneri 4b JS 11811; assay: Minimum inhibitory concentration, serial dilution method; assay type: cell-based; conditions: 4BJS11811, nutrient agar, 37° C, 18 hours, read-out: Minimum inhibitory concentrations
[2] = system: Mycobacterium smegmatis ATCC 607; assay: Minimal inhibitory concentration, agar dilution streak method; assay type: cell-based; conditions: Mycolicibacterium smegmatis, ATCC607; nutrient agar, 37° C, 18 hours; read-out: Minimum inhibitory concentrations
Shigella sonnei JS 11746 = assay: Minimum inhibitory concentration, serial dilution method; assay type: cell-based; conditions: JS11746, nutrient agar, 37° C, 18 hours, read-out: Minimum inhibitory concentrations
[3] = system: Bacillus cereus ATCC 10702; assay: as above; assay type: cell-based; conditions: ATCC10702, nutrient agar, 37° C, 18 hours, read-out: Minimum inhibitory concentrations
[4] = system: Escherichia coli K-12 ML 1410; assay: Minimal inhibitory concentration, agar dilution streak method; assay type: cell-based; conditions: K12ML1410, nutrient agar, 37° C, 18 hours
Method: (§1) *Agar Agar dilution streak method (nutrient agar, 37° C, 18 hours)
(§2) *Agar dilution streak method (nutrient agar, 37° C, 18 hours).

[5] = system: Pseudomonas aeruginosa A 3; assay: as above; assay type: cell-based; conditions: A3, nutrient agar, 37° C, 18 hours
Method: as §1, §2

[6] = system: Escherichia coli K-12 ML 1410 R 81; assay: as above; assay type: cell-based; conditions: 18 h
Method: as §1, §2

[7] = system: Escherichia coli K-12 LA 290 R 56; assay: as above; assay type: cell-based; conditions: 18 h
Method: as §1, §2

[8] = system: Escherichia coli K-12 LA 290 R 64; assay: as above; assay type: cell-based; conditions: nutrient agar, 37° C, 18 hours
Method: as §1, §2

[9] = system: Klebsiella pneumoniae type 22 #3038; assay: as above; assay type: cell-based; conditions: Klebsiella pneumoniae; nutrient agar, 37° C, 18 hours
Method: as §1, §2

[10] = system: Pseudomonas aeruginosa GN 315; assay: as above; assay type: cell-based; conditions: GN315, nutrient agar, 37° C, 18 hours, read-out: Minimal inhibitory concentration
Method: as §1, §2

[11] = system: Escherichia coli K-12 LA 290 R 55; assay: as above; assay type: cell-based; conditions: 18 h
Method: as §1, §2

[12] = system: Escherichia coli K-12 ML 1630; assay: as above; assay type: cell-based; conditions: K12ML1630, nutrient agar, 37° C, 18 hours
Method: as §1, §2

[13] = system: Escherichia coli K-12 JR 66/W 677; assay: as above; assay type: cell-based; conditions: Escherichia coli, 18 h
Method: as §1, §2

[14] = system: Staphylococcus aureus FDA 209P; assay: as above; assay type: cell-based; conditions: FDA209P, nutrient agar, 37° C, 18 hours
Method: as §1, §2

[15] = system: Escherichia coli K-12 ML 1629; assay: as above; assay type: cell-based; conditions: K12ML1629, nutrient agar, 37° C, 18 hours
Method: as §1, §2

Escherichia coli K-12 = assay: as above; assay type: cell-based; conditions: K12, nutrient agar, 37° C, 18 hours
Method: as §1, §2

[16] = system: Pseudomonas aeruginosa No.12; assay: as above; assay type: cell-based; conditions: nutrient agar, 37° C, 18 hours
Method: as §1, §2

[17] = system: Escherichia coli K-12 W 677; assay: as above; assay type: cell-based; conditions: K12W677, nutrient agar, 37° C, 18 hours
Method: as §1, §2

[18] = system: Pseudomonas aeruginosa TI-13; assay: as above; assay type: cell-based; conditions: TI13, nutrient agar, 37° C, 18 hours
Method: as §1, §2

[19] = system: Staphylococcus aureus Smith; assay: Minimum inhibitory concentration, serial dilution method; assay type: cell-based; conditions: nutrient agar, 37° C, 18 hours, read-out: Minimum inhibitory concentrations
[20] = system: Shigella dysenteriae JS 11910; assay: as above; assay type: cell-based; conditions: JS11910, 18 h, read-out: Minimum inhibitory concentrations
mice = assay: Acute intravenous toxicity (LD50) in mice; conditions: in words
[21] = system: gram-positive and gram-negative bacteria; assay: Antibacterial activity (in words); assay type: cell-based; conditions: various gram-positive and gram-negative bacteria, including resistant strains
Method: (§3) [α]D^22 + 38°, (c 0.85, water).

[22] = system: Salmonella enteritidis 1891; assay: Minimum inhibitory concentration, serial dilution method; assay type: cell-based; conditions: Salmonella enterica, nutrient agar, 37° C, 18 hours, read-out: Minimum inhibitory concentrations
[23] = system: Bacillus subtilis PCI 219; assay: as above; assay type: cell-based; conditions: PCI219, nutrient agar, 37° C, 18 hours, read-out: Minimum inhibitory concentrations
[24] = system: Escherichia coli K-12 R-5; assay: Minimal inhibitory concentration, agar dilution streak method; assay type: cell-based; conditions: K12R5, nutrient agar, 37° C, 18 hours
Method: as §3, §1, §2

[25] = system: Pseudomonas aeruginosa 99; assay: as above; assay type: cell-based; conditions: nutrient agar, 37° C, 18 hours
Method: as §3, §1, §2

Sarcina lutea PCI 1001 = assay: as above; assay type: cell-based; conditions: Micrococcus luteus, PCI1001, 18 h, read-out: Minimal inhibitory concentration
Method: as §3, §1, §2

Salmonella typhosa T-63 = assay: as above; assay type: cell-based; conditions: Salmonella enterica, nutrient agar, 37° C, 18 hours
Method: as §3, §1, §2

Escherichia coli NIHJ = assay: as above; assay type: cell-based; conditions: nutrient agar, 37° C, 18 hours
Method: as §3, §1, §2

[26] = system: Klebsiella pneumoniae PCI 1602; assay: Minimum inhibitory concentration, serial dilution method; assay type: cell-based; conditions: PCI1602, nutrient agar, 37° C, 18 hours, read-out: Minimum inhibitory concentrations
Proetus vulgaris OX 19 = assay: as above; assay type: cell-based; conditions: nutrient agar, 37° C, 18 hours; read-out: Minimum inhibitory concentrations
in vivo = conditions: mouse, iv
[27] = system: Corynebacterium bovis 1810; assay: Minimum inhibitory concentration, serial dilution method; assay type: cell-based; conditions: Corynebacterium bovis, 1810; nutrient agar, 37° C, 18 hours; read-out: Minimum inhibitory concentrations
[28] = system: Staphylococcus aureus Terajima; assay: as above; assay type: cell-based; conditions: nutrient agar, 37° C, 18 hours, read-out: Minimum inhibitory concentrations
[29] = system: kanamycin-resistant strains; conditions: strains producing 3'-hydroxyl phosphorylating enzyme; cited from earlier work
nucleotidyl-transferase = conditions: adenylylation of 2"-hydroxyl group with ATP; cited from earlier work
[30] = read-out: Minimal inhibitory concentration
[31] = read-out: minimum inhibitory concentrations

Structure (SMILES): NCC[C@H](O)C(=O)N[C@@H]1C[C@H](N)[C@@H](O[C@H]2O[C@H](CN)[C@@H](O)[C@H](O)[C@H]2N)[C@H](O)[C@H]1O[C@H]1O[C@H](CO)[C@@H](O)[C@H](N)[C@H]1O [AHB-kanamycin B, 1-N-[(S)-4-amino-2-hydroxybutyryl]-kanamycin B]
- MIC (Bacillus anthracis): < 0.2 µg/mL
- MIC [1]: 3.12 µg/mL (≈ 5.34 µM)
- MIC [2]: 0.78 µg/mL (≈ 1.33 µM)
- MIC (Shigella sonnei JS 11746): 1.56 µg/mL (≈ 2.67 µM)
- MIC [3]: 1.56 µg/mL (≈ 2.67 µM)
- MIC [4, 30]: 3.13 µg/mL (≈ 5.35 µM)
- MIC [5, 30]: 6.25 µg/mL (≈ 10.7 µM)
- MIC [6, 30]: 1.56 µg/mL (≈ 2.67 µM)
- MIC [7, 30]: 0.39 µg/mL (≈ 0.667 µM)
- MIC [8, 30]: 0.39 µg/mL (≈ 0.667 µM)
- MIC [9]: 6.25 µg/mL (≈ 10.7 µM)
- MIC [10]: 50 µg/mL (≈ 85.5 µM)
- MIC [11, 30]: 1.56 µg/mL (≈ 2.67 µM)
- MIC [12, 30]: 1.56 µg/mL (≈ 2.67 µM)
- MIC [13, 30]: 3.12 µg/mL (≈ 5.34 µM)
- MIC [14, 30]: 0.78 µg/mL (≈ 1.33 µM)
- MIC [15, 30]: 1.56 µg/mL (≈ 2.67 µM)
- MIC (Escherichia coli K-12; [30]): 0.78 µg/mL (≈ 1.33 µM)
- MIC [16, 30]: 6.25 µg/mL (≈ 10.7 µM)
- MIC [17, 30]: 0.39 µg/mL (≈ 0.667 µM)
- MIC [18, 30]: 6.25 µg/mL (≈ 10.7 µM)
- MIC [19]: < 0.2 µg/mL
- MIC [20]: 3.12 µg/mL (≈ 5.34 µM)
- toxicity (mice): low toxicity to animals and men
- antibacterial activity [21]: high antibacterial activity not only against various gram-positive and gram-negative bacteria which are sensitive to kanamycins, but also against the drug-resistant strains of Escherichia coli and Pseudomonas aeruginosa
- MIC [22]: 3.12 µg/mL (≈ 5.34 µM)
- MIC [23]: < 0.2 µg/mL
- MIC [24]: 0.78 µg/mL (≈ 1.33 µM)
- MIC [25, 30]: 25 µg/mL (≈ 42.8 µM)
- MIC (Sarcina lutea PCI 1001): 3.13 µg/mL (≈ 5.35 µM)
- MIC (Salmonella typhosa T-63): 0.39 µg/mL (≈ 0.667 µM)
- MIC (Escherichia coli NIHJ): 0.78 µg/mL (≈ 1.33 µM)
- MIC [26]: 0.39 µg/mL (≈ 0.667 µM)
- MIC (Proetus vulgaris OX 19): 1.56 µg/mL (≈ 2.67 µM)
- LD50 (in vivo): > 100 mg/kg
- MIC [27]: 0.39 µg/mL (≈ 0.667 µM)
- MIC [28]: 0.2 µg/mL (≈ 0.342 µM)

Structure (SMILES): NC[C@@H]1CC[C@@H](N)[C@@H](O[C@H]2[C@H](O)[C@@H](O[C@H]3O[C@H](CO)[C@@H](O)[C@H](N)[C@H]3O)[C@H](N)C[C@@H]2N)O1 [DKB, 3',4'-dideoxykanamycin B]
- MIC [4, 31]: 1.56 µg/mL (≈ 3.45 µM)
- MIC [5, 31]: 3.12 µg/mL (≈ 6.91 µM)
- MIC [6, 31]: 3.12 µg/mL (≈ 6.91 µM)
- MIC [7, 31]: 25 µg/mL (≈ 55.4 µM)
- MIC [8, 31]: 25 µg/mL (≈ 55.4 µM)
- MIC [11, 31]: > 100 µg/mL
- MIC [12, 31]: 3.12 µg/mL (≈ 6.91 µM)
- MIC [13, 31]: 100 µg/mL (≈ 221 µM)
- MIC [14, 31]: 1.56 µg/mL (≈ 3.45 µM)
- MIC ([15]; drug-resistant strain, read-out: minimum inhibitory concentrations): 3.12 µg/mL (≈ 6.91 µM)
- MIC (Escherichia coli K-12; [31]): 1.56 µg/mL (≈ 3.45 µM)
- MIC [16, 31]: 3.12 µg/mL (≈ 6.91 µM)
- MIC [17, 31]: 1.56 µg/mL (≈ 3.45 µM)
- MIC [18, 31]: 3.12 µg/mL (≈ 6.91 µM)
- MIC [25, 31]: 12.5 µg/mL (≈ 27.7 µM)
- activity against kanamycin-resistant strains [29]: actually effective
- inactivation by nucleotidyl-transferase (nucleotidyl-transferase): inactivate
